Entries after “also recorded” stand apart in the source; their conditions may differ.
Legend:
[1] = tested on: HeLa, ME-180, MDA-MB-231, A549 and NIH:OVCAR-3 cancer cells; assay: cells; type: cell-based; settings: Homo sapiens, 72 h, read-out: IC50 against cancer cells
MRC-5 human normal cells = type: cell-based
[2] = tested on: NIH:OVCAR-3 ovarian cancer xenograft; parameters: species or system SCID mice; settings: mouse, in vivo
[3] = tested on: A549 lung cancer xenograft tumor tissue; parameters: species or system SCID mice; settings: mouse, in vivo
[4] = mouse, in vivo
[5] = mouse, in vivo; remark: listed apart in the source
[6] = tested on: NIH:OVCAR-3 cisplatin-resistant human ovarian cancer cells; assay: cells; type: cell-based
[7] = tested on: GM05757 human normal cells; type: cell-based
[8] = tested on: MRC-5 human lung normal cells; type: cell-based; settings: read-out: IC50 (agent concentration to kill 50% of untreated cells), MRC-5
[9] = tested on: human normal cells (GM05757 and MRC-5); type: cell-based; settings: read-out: IC50 toward human normal cells
[10] = mouse, in vivo, cited from earlier work

Compound	IC50 [1]	caspase activation (apoptosis) in normal cells (MRC-5 human normal cells)	cisplatin-resistant ovarian (NIH:OVCAR-3) tumor growth vs control [2]	apoptosis in tumor tissue (TUNEL) vs untreated group [3]	acute toxicity in mice (hepatotoxicity, nephrotoxicity, electrolytes) [4]	overall physical toxicity in mice [5]	IC50 ([6]; Homo sapiens, OVCAR-3, 72 h, read-out: IC50, NIH:OVCAR-3)	increase of the GSH level in normal cells [7]	IC50 [8]	NIH:OVCAR-3 cancer cells surviving high-dose treatment [6]	IC50 [9]	activation of caspase-3 and -7 in MRC-5 normal cells (MRC-5 human normal cells)	mean body weight compared to vehicle control ([10]; 2.3 mg/kg)	levels of blood urea nitrogen (BUN) ([10]; 15 mg/kg)	mice that died within 5 days ([10]; 15 mg/kg)
Nc1cc(I)c(I)cc1N [FMD-2I-DAB, 4,5-diiodo-1,2-phenylenediamine]	15 to 75 µM	negligible caspase activation	effectively suppressed	significant enhancement in apoptosis; also recorded: most effective inducer of apoptosis	no acute toxicity	no overall physical toxicity									
Nc1cc(Br)c(Br)cc1N [FMD-2Br-DAB, 4,5-dibromo-1,2-phenylenediamine]	15 to 75 µM	negligible caspase activation		significant enhancement in apoptosis	no acute toxicity	no overall physical toxicity	175 µM	about 40%							
cisplatin									~6 µM	about 12%	≤ 10 µM	significant activation	significant decrease	significantly elevated	Half

Source: paper PMC4551467 (EBioMedicine, 2015)
